Test results from patent publication US6452009B1, “4-unsubstituted dihydroisoquinolinone derivatives and combinatorial libraries thereof” (Lion Bioscience AG, priority 1999, dated 2002).

Test system: Streptococcus pyogenes (ATCC #97-03 14289)
Assay: Anti-microbial screen (growth inhibition, OD 570 nm)
Assay type: cell-based
Conditions: ATCC97, compounds assayed at 170 μg/ml, growth in Todd Hewitt Broth read at 570 nm at 4 hrs, read-out: % Inhibition
Method: Streptococcus pyogenes (ATCC #97-03 14289) are grown in Todd Hewitt Broth (THB) (Difco Laboratories #0492-17-6) overnight until they reach an optical density of (OD=0.636@570 nm) by reading 0.1 ml in a 96 well microtiter plate in a Molecular Devices Thermomax. This preparation is kept frozen as stocks in 30% v/v glycerol in 1.5 ml aliquots at −70° C. until use. Prior to screening, 1.5 ml aliquots are thawed and diluted into 50 ml THB. 200 μl of this dilution is added to 92 wells of microtiter plate. To three wells THB (200 μl) is added to serve as a blank and a sterility control. Test compounds in DMSO and appropriate concentrations of DMSO are added to Growth/Solvent Controls at 0 time. Plates are read at 0 time at 570 nm in the Molecular Devices plate reader to obtain compounds correction factors for insoluble or colored compounds. Plates are read again at 4 hrs.
Compounds are assayed at a concentration of 170 μg/ml. Percent inhibition for each compound is calculated using the following formulae:
Color correct=(O.D. 0 hr −Blank 0 hr)—(Solvent Control 0 hr−Blank 0 hr)
% Inhibition=100−(O.D. test compound 4 hr−Blank 4 hr−color correct) divided by (O.D. growth/solvent control 4 hr−Blank 4 hr)

| Compound | inhibition at 170 µg/mL |
| --- | --- |
| CCCCCC/C=C/C(=O)Nc1ccc2c(c1)C(=O)N(CCC(=O)N(CCN(C)C)CC(N)=O)C(c1ccc(SC)cc1)C2 (stereo not shown) | 99.9% |
| CN(C)CCN(CC(N)=O)C(=O)c1ccc(CN2C(=O)c3cc(NC(=O)CCC4CCCC4)ccc3CC2c2ccc(F)c(F)c2)cc1 (stereo not shown) | 99.9% |
| CN(C)CCN(CC(N)=O)C(=O)CCN1C(=O)c2cc(NC(=O)c3cccc(C(F)(F)F)c3F)ccc2CC1c1ccc(C(F)(F)F)cc1 (stereo not shown) | 99.9% |
| CN(C)CCCOc1ccc(C2Cc3ccc(NC(=O)Cc4cccc(C(F)(F)F)c4)cc3C(=O)N2CCC(=O)N(CC(N)=O)C2CC2)cc1 (stereo not shown) | 99.9% |
| CC(CC(=O)Nc1ccc2c(c1)C(=O)N(CCC(=O)N(CC(N)=O)C1CC1)C(c1ccc(F)c(F)c1)C2)CC(C)(C)C (stereo not shown) | 99.7% |
| CN(C)CCCOc1ccc(C2Cc3ccc(NC(=O)COc4ccc5ccccc5c4)cc3C(=O)N2CCC(=O)N(CC(N)=O)Cc2cccc(C(F)(F)F)c2)cc1 (stereo not shown) | 99.6% |
| CN(C)CCCOc1ccc(C2Cc3ccc(NC(=O)c4cccc(C(F)(F)F)c4F)cc3C(=O)N2Cc2ccc(C(=O)N(CC(N)=O)Cc3cccc(C(F)(F)F)c3)cc2)cc1 (stereo not shown) | 99.6% |
| CN(C)CCN(CC(N)=O)C(=O)c1ccc(CN2C(=O)c3cc(NC(=O)CCC4CCCCC4)ccc3CC2c2ccc(C(F)(F)F)cc2)cc1 (stereo not shown) | 99.6% |
| CN(C)CCN(CC(N)=O)C(=O)c1ccc(CN2C(=O)c3cc(NC(=O)CC4CC5CCC4C5)ccc3CC2c2cccc3ccccc23)cc1 (stereo not shown) | 99.5% |
| CSc1ccc(C2Cc3ccc(NC(=O)CC(C)CC(C)(C)C)cc3C(=O)N2Cc2ccc(C(=O)N(CCN(C)C)CC(N)=O)cc2)cc1 (stereo not shown) | 99.5% |
| CN(C)CCN(CC(N)=O)C(=O)CCN1C(=O)c2cc(NC(=O)C3(c4ccccc4)CC3)ccc2CC1c1ccccc1 (stereo not shown) | 99.5% |
| CN(C)CCN(CC(N)=O)C(=O)c1ccc(CN2C(=O)c3cc(NC(=O)c4ccc(OC(F)(F)F)cc4)ccc3CC2c2cccc(C#N)c2)cc1 (stereo not shown) | 99.5% |
| CN(C)CCN(CC(N)=O)C(=O)c1ccc(CN2C(=O)c3cc(NC(=O)c4cccc(C(F)(F)F)c4F)ccc3CC2c2cccc(C#N)c2)cc1 (stereo not shown) | 99.5% |
| COc1cc(OC)cc(C2Cc3ccc(NC(=O)c4ccc(OC(F)(F)F)cc4)cc3C(=O)N2CCC(=O)N(CCN(C)C)CC(N)=O)c1 (stereo not shown) | 99.5% |
| COc1cc(OC)cc(C2Cc3ccc(NC(=O)c4ccc(F)c(F)c4)cc3C(=O)N2CCC(=O)N(CCN(C)C)CC(N)=O)c1 (stereo not shown) | 99.5% |
| COc1cc(OC)cc(C2Cc3ccc(NC(=O)C(=O)c4c(C)cc(C)cc4C)cc3C(=O)N2CCC(=O)N(CCN(C)C)CC(N)=O)c1 (stereo not shown) | 99.5% |
| COc1cc(OC)cc(C2Cc3ccc(NC(=O)CCC4CCCC4)cc3C(=O)N2CCC(=O)N(CCN(C)C)CC(N)=O)c1 (stereo not shown) | 99.5% |
| CN(C)CCN(CC(N)=O)C(=O)CCN1C(=O)c2cc(NC(=O)CC3CCCC3)ccc2CC1c1ccc(C(C)(C)C)cc1 (stereo not shown) | 99.5% |
| CCCC(CCC)C(=O)Nc1ccc2c(c1)C(=O)N(Cc1ccc(C(=O)N(CC(N)=O)Cc3ccccc3)cc1)C(c1ccc(OCCCN(C)C)cc1)C2 (stereo not shown) | 99.5% |
| CN(C)CCCOc1ccc(C2Cc3ccc(NC(=O)CCC4CCCC4)cc3C(=O)N2Cc2ccc(C(=O)N(CC(N)=O)Cc3ccccc3)cc2)cc1 (stereo not shown) | 99.5% |

| Compound | inhibition at 170 µg/mL |
| --- | --- |
| CN(C)CCN(CC(N)=O)C(=O)CCN1C(=O)c2cc(NC(=O)c3ccc(I)cc3)ccc2CC1c1ccc2ccccc2n1 (stereo not shown) | 99.5% |
| CN(C)CCN(CC(N)=O)C(=O)c1ccc(CN2C(=O)c3cc(NC(=O)c4ccc(OC(F)(F)F)cc4)ccc3CC2c2ccccn2)cc1 (stereo not shown) | 99.5% |
| COc1ccc(Br)c(C(=O)Nc2ccc3c(c2)C(=O)N(Cc2ccc(C(=O)N(CCN(C)C)CC(N)=O)cc2)C(c2ccc(F)c(F)c2)C3)c1 (stereo not shown) | 99.5% |
| CCCCCC(=O)Nc1ccc2c(c1)C(=O)N(CCC(=O)N(CC(N)=O)Cc1cccc(C(F)(F)F)c1)C(c1ccc(C(C)(C)C)cc1)C2 (stereo not shown) | 99.4% |
| CCCCCC/C=C/C(=O)Nc1ccc2c(c1)C(=O)N(CCC(=O)N(CCN(C)C)CC(N)=O)C(c1ncc[nH]1)C2 (stereo not shown) | 99.4% |
| COc1ccc(Br)c(C(=O)Nc2ccc3c(c2)C(=O)N(Cc2ccc(C(=O)N(CC(N)=O)Cc4cccc(C(F)(F)F)c4)cc2)C(c2ccc(OCCCN(C)C)cc2)C3)c1 (stereo not shown) | 99.4% |
| CCCC(CCC)C(=O)Nc1ccc2c(c1)C(=O)N(Cc1ccc(C(=O)N(CCN(C)C)CC(N)=O)cc1)C(c1cc(OC)cc(OC)c1)C2 (stereo not shown) | 99.3% |
| CC(CC(=O)Nc1ccc2c(c1)C(=O)N(Cc1ccc(C(=O)N(CC(N)=O)Cc3cccc(C(F)(F)F)c3)cc1)C(c1ccc(F)c(F)c1)C2)CC(C)(C)C (stereo not shown) | 99.3% |
| COc1cc(OC)cc(C2Cc3ccc(NC(=O)Cc4cccc(C(F)(F)F)c4)cc3C(=O)N2Cc2ccc(C(=O)N(CCN(C)C)CC(N)=O)cc2)c1 (stereo not shown) | 99.2% |
| CN(C)CCN(CC(N)=O)C(=O)CCN1C(=O)c2cc(NC(=O)CC3CC4CCC3C4)ccc2CC1c1ccc(C(F)(F)F)cc1 (stereo not shown) | 99.2% |
| CN(C)CCN(CC(N)=O)C(=O)CCN1C(=O)c2cc(NC(=O)c3cccc(C(F)(F)F)c3F)ccc2CC1c1ccccc1 (stereo not shown) | 99.2% |
| CN(C)CCN(CC(N)=O)C(=O)CCN1C(=O)c2cc(NC(=O)c3ccc(I)cc3)ccc2CC1c1ccccn1 (stereo not shown) | 99.2% |
| CN(C)CCN(CC(N)=O)C(=O)CCN1C(=O)c2cc(NC(=O)COc3ccc4ccccc4c3)ccc2CC1c1ccc(F)c(F)c1 (stereo not shown) | 99.2% |
| CN(C)CCN(CC(N)=O)C(=O)CCN1C(=O)c2cc(NC(=O)c3cc(C(F)(F)F)cc(C(F)(F)F)c3)ccc2CC1c1ccc(F)c(F)c1 (stereo not shown) | 99.2% |
| NC(=O)CN(Cc1cccc(C(F)(F)F)c1)C(=O)CCN1C(=O)c2cc(NC(=O)CC3CC4CCC3C4)ccc2CC1c1cccnc1 (stereo not shown) | 99.2% |
| Cc1ccc(C2Cc3ccc(NC(=O)COc4ccc5ccccc5c4)cc3C(=O)N2CCC(=O)N(CCN(C)C)CC(N)=O)cc1 (stereo not shown) | 99.2% |
| Cc1ccc(C2Cc3ccc(NC(=O)c4cc(C(F)(F)F)cc(C(F)(F)F)c4)cc3C(=O)N2CCC(=O)N(CCN(C)C)CC(N)=O)cc1 (stereo not shown) | 99.2% |
| Cc1cc(C)c(C(=O)C(=O)Nc2ccc3c(c2)C(=O)N(CCC(=O)N(CCN(C)C)CC(N)=O)C(c2ccc4ccccc4n2)C3)c(C)c1 (stereo not shown) | 99.2% |
| Cc1cc(C)c(C(=O)C(=O)Nc2ccc3c(c2)C(=O)N(Cc2ccc(C(=O)N(CCN(C)C)CC(N)=O)cc2)C(c2ccc4ccccc4n2)C3)c(C)c1 (stereo not shown) | 99.2% |
| Cc1ccc2oc(C(=O)Nc3ccc4c(c3)C(=O)N(CCC(=O)N(CC(N)=O)Cc3cccc(C(F)(F)F)c3)C(c3ccc(F)c(F)c3)C4)cc(=O)c2c1 (stereo not shown) | 99.2% |
